Measured values from patent publication US20170212981A1, “METHODS FOR SCREENING THERAPEUTIC AGENT FOR PROTEIN CONFORMATIONAL DISEASES” (SOOKMYUNG WOMEN'S UNIVERSITY INDUSTRY ACADEMIC COOPERATION …, priority 2016, published 2017).
Like-named read-outs stand apart in the source and are kept apart here.

Legend:
[1] = target: T1, Aβ1-40 (Homo sapiens, UniProt P05067); assay: Time-dependent fibril formation monitored by dye fluorescence; format: binding; conditions: Aβ1-40 at 37° C. with shaking; aliquots added to dye
T1 construct: Synthetic Aβ1-40 was purchased from American Peptide Co; purchased American Peptide Co. (Sunnyvale, Calif.); host or cells: chemical synthesis
T1 sequence (P05067 672-711 limits assumed): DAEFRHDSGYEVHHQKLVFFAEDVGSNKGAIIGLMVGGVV
Description: For monitoring of fibril formation over time, 40 µM peptide solution of Aβ1-40 was prepared as above and incubated at 37° C. with 5 s shaking at every 7 min interval. Fluorescence readings were taken at various time point intervals by mixing a 30 μL aliquot of peptide solution to […]. ThT signal was monitored at 480 nm by 444 nm excitation, whereas BD-Oligo was excited at 530 nm and its emission detected at 585 nm. Fluorescence was measured using a SpectraMax M2 spectrophotometer (Molecular Devices, Sunnyvale, Calif.). Aβ1-40 was also coincubated with dye to study any effects the dye may have on fibril formation.

[2] = target: T2, Aβ1-40 monomers, oligomers, fibrils (Homo sapiens, UniProt P05067); assay: Emission of dye incubated with preformed Aβ monomers, oligomers and fibrils; format: binding; conditions: Aβ 20 μM
T2 construct: Synthetic Aβ1-40 was purchased from American Peptide Co; purchased American Peptide Co. (Sunnyvale, Calif.); host or cells: chemical synthesis
T2 sequence (P05067 672-711 limits assumed): as above
Description: Synthetic Aβ1-40 was purchased from American Peptide Co. (Sunnyvale, Calif.) in lyophilized form. Dry peptide was dissolved in 1,1,1,3,3,3-hexafluoro-2-isopropanol (HFIP) and incubated at 25° C. for 1 h to remove any preformed aggregates. It was aliquoted into small aliquots and dried using a speed-vac. The dry peptide was stored at −20° C. until required, where each aliquot was then dissolved in 5 M GuHCl 10 mM Tris.Cl pH 8 to 1 mM peptide solution. After sonication in a sonicating water bath for 15 min, the solution was diluted with phosphate-buffered saline (PBS), pH 7.4, and stored on ice until use. This freshly prepared sample is referred to as monomer. To form fibrils, 100 μM sample is incubated for 24 h at 37° C. with 5 s shaking at a 7 min interval. […] Prior to fluorescence assays, it is resolubilized in deionized distilled water and diluted in PBS. […]
HPLC-MS was taken on an Agilent-1200 with a DAD detector and a single quadrupole mass spectrometer (6130 series). […] Spectroscopic and quantum yield data were measured on a SpectraMax M2 spectrophotometer (Molecular Devices). Compounds in solvent (100 μL) in 96-well polypropylene plates was for fluorescence measurement. […] 1H-NMR and 13C-NMR spectra were recorded on Bruker AMX500 (500 MHz) spectrometers, and chemical shifts are expressed in parts per million (ppm) and coupling constants are reported as a J value in Hertz (Hz).

[3] = target: T3, Aβ oligomers (Homo sapiens, UniProt P05067); assay: Saturation assay, apparent binding constant for Aβ oligomers; conditions: Aβ oligomers 20 μM, λex=530 nm
T3 construct: Preformed oligomers were prepared by Aβ1-40 peptide solubilized in borate-buffered saline; purchased American Peptide Co. (Sunnyvale, Calif.); host or cells: chemical synthesis, then cross-linked in house with glutaraldehyde
T3 sequence (P05067 672-711 limits assumed): as above
Description: FIG. 7 depicts BD-Oligo binding constant (Aβ oligomers: 20 μM, λex=530 nm), F is the fluorescence intensity of BD-Oligo at 580 nm after binding with Aβ oligomers; and F0 is the fluorescence intensity of BD-Oligo at 580 nm before binding with Aβ oligomers.
To quantify the affinity of BDOligo for Aβ oligomers, we measured the apparent binding constant (Kd) of BD-Oligo by conducting a saturation assay.

[4] = system: APP/PS1 transgenic (Tg) AD model mice; assay: Ex vivo imaging of brains after ip injection; format: in vivo
Description: For ex vivo imaging, a stock solution of BD-Oligo was made at 10 mM in 100% DMSO.
Eighteen month old APP/PS 1 transgenic (Tg) AD model mice were given intraperitoneal (ip) injections with either 1.25 μL of BD-Oligo diluted in 500 μL of saline (n=2) or 500 μL of saline alone (n=2). APP/PS 1 Tg mice develop amyloid plaques from 4 months of age. Mice were anesthetized with an overdose of sodium pentobarbital and perfused 0.1 M PBS, pH 7.4. Brains were removed 24 h after the ip injection and fixed by immersion in periodate-lysine-paraformaldehyde for 24 h, cryo-protected in 30% sucrose for 3 days, and sectioned into 40 μm coronal sections using a cryostat. Brain sections from the BD-Oligoinjected mouse and the control APP/PS 1 mouse that received a saline alone injection were then stained for Aβ using fluorescent immunohistochemistry. Briefly, free floating sections were incubated with MOM blocking reagent (Vector) followed by an overnight incubation at 4° C. with anti-Aβ antibodies 4G8 and 6E10 diluted in MOM protein concentrate (Vector), as the present inventors previously published. Sections were then incubated with a 488 conjugated secondary antibody (Jackson Immunoresearch) for 2 h at room temperature, mounted onto slides, and cover slipped. Staining was visualized using a LMD6500 fluorescent microscope (Leica); 6E10/4G8 staining was imaged using in the green (488) channel, and BD-Oligo was imaged in the red (561) channel.

Compound	incubation time at maximum fluorescence during Aβ fibril formation [1]	fluorescence response to Aβ monomers, oligomers, fibrils ([2]; λex=440 nm, dye 5 μM)	Bmax, best-fit value ([3]; detailed statistics of the saturation fit)	Kd ([3]; detailed statistics of the saturation fit, read-out: Kd, best-fit value)	Kd ([3]; saturation assay, Scatchard plot, emission 580 nm, read-out: apparent binding constant (Kd) for Aβ oligomers)	fluorescence enhancement with Aβ monomers, oligomers, fibrils ([2]; λex=530 nm)	toxicity associated with in vivo injection ([4]; 18 month old APP/PS1 Tg mice)	blood-brain barrier penetration ([4]; 18 month old APP/PS1 Tg mice, brains removed after 24 h)	labeling of brain tissue ([4]; brain sections 24 h later, co-stained with anti-Aβ 6E10/4G8)
Cc1ccc2c(c1)sc(-c1ccc(N(C)C)cc1)[n+]2C.[Cl-] [ThT, Thioflavin T, reference compound]	about 1 day	increasing order of freshly prepared Aβ monomers, followed by oligomer and fibrils	–	–	–	–	–	–	–
CCOc1cccc(C=Cc2cc(C)c3n2[B-](F)(F)[N+]2=C(CCC(=O)OCC(Cl)(Cl)Cl)C=CC2=C3)c1O [BD-Oligo]	about 1 day	–	7.886	482 nM	480 nM	highest fluorescence enhancement is observed upon incubation with Aβ oligomers	no apparent toxicity	able to cross the BBB	fluorescent labeling of AD brain tissue
